The subject of the assay is retinal ganglion cells. Kind of assay: Ganglion cell spiking response to electric stimulation near the soma with synaptic transmission blocked pharmacologically (cell-attached patch clamp, isolated retina). Format: cell-based, rabbit. Particulars: for maximum number of elicited spikes in control versus with synaptic blocker: 1 sec, plot control (x) vs blocker (y), FIG. 5c, 5d; for response to 10-Hz stimulation (spikes elicited): 10 Hz sinusoidal stimulus near soma; for stimulus threshold in blocker relative to control / effect of the blockers on stimulus threshold: 50 μM CNQX or 100 μM CdCl2, paired t-test; for response to 25-Hz stimulation (spikes elicited): 25 Hz sinusoidal stimulus near soma; for synaptically mediated response of ganglion cells to stimulation: stimulation at 5-25 Hz. The procedure: The present invention provides for responses to LFSS that are synaptic in origin. To determine whether presynaptic activation played a significant role in the high sensitivity of the soma region to LFSS, the response to stimulation near the soma was measured while synaptic transmission was blocked pharmacologically. The primary source of excitatory input to ganglion cells arises via glutamatergic release from the axon terminals of bipolar cells and is mediated through AMPA/kainate receptors on the ganglion cell dendrites.
The care and use of animals followed all federal and institutional guidelines, and all protocols were approved by the Institutional Animal Care and Use Committees of the Boston VA Healthcare System and/or the Subcommittee of Research Animal Care of the Massachusetts General Hospital. New Zealand White Rabbits (˜2.5 kg) were anesthetized with injections of xylazine/ketamine and subsequently euthanized with an intracardial injection of pentobarbital sodium. Immediately after death, the eyes were removed. All procedures following eye removal were performed under dim red illumination. The front of the eye was removed, the vitreous was eliminated. The retina was separated from the retinal pigment epithelium and mounted, photoreceptor side down, to a 10-mm square piece of Millipore filter paper (0.45 μm HA Membrane Filter) that was mounted with vacuum grease to the recording chamber (˜1.0 ml volume). A 2-mm circle in the center of the Millipore paper allowed light from below to be projected on to the photoreceptors.
Patch pipettes were used to make small holes in the inner limiting membrane, and ganglion cells with large somata were targeted under visual control. Spiking was recorded with a cell-attached patch electrode (4-8MΩ) filled with superfusate. For whole-cell recordings, the patch electrode was filled with (in mM): 113 CsMeSO4, 1 MgSO4, 7.8×10^−3 CaCl2, 0.1 BABTA, 10 HEPES, 4 ATP-Na2, 0.5 GTP-Na3, 5 lidocaine N-ethyl bromide (QX314-BR), 7.5 neurobiotin chloride, pH 7.2. […] Two silver-chloride coated silver wires served as the ground and were positioned at opposite edges of the recording chamber each approximately 15 mm from the targeted cell. The retina was continuously perfused at 4 mL/min with Ames' (pH 7.4) at 36° C., equilibrated with 95% O2 and 5% CO2. Pharmacological agents were applied to the bath by switching a 3-way stopcock to a 200 mL reservoir of Ames' containing one or more of the following blockers: 50 μM 6-cyano-7-nitroquinoxaline-2,3-dione (CNQX), 100 μM cadmium chloride (CdCl2).
Pulse and sinusoidal stimuli were controlled by Multi-Channel Systems STG2004 hardware and software. Two silver-chloride coated silver wires served as the return; each was positioned approximately 8 mm from the targeted cell and approximately 12 mm from each other. The height of the stimulating electrode remained fixed at 25 μm above the inner limiting membrane. The stimulating electrode was placed either directly over the sodium-channel band on the proximal axon, or ˜1 mm lateral to the soma directly over the distal axon. Because of the use of patch clamp, spikes were clearly visible through the stimulus artifact. The efficacy of various stimulation waveforms (0.2-ms pulses and 5-Hz to 100-Hz sinusoids) was tested for the two different electrode positions.
Pulsatile stimuli were biphasic pulses (equal and opposite rectangular phases) delivered at 10 pulses per second (phase duration: 200 μsec; interphase delay: 10 ms; cathodic phase first). The interphase delay was long enough for the neural response to the cathodic pulse to be completed before the onset of the anodic phase. For each stimulus amplitude, 15-30 pulses were delivered and there was a delay of >5 sec between stimulation epochs. Pulses of this duration and over the range of stimulus amplitudes produced either a single spike or no spike. If a spike was elicited, it immediately followed the cathodal pulse. […]
Background: In patch-clamp work, channel activity is measured electrically.

Setting [1] is: single blocker in bath: 50 μM CNQX or 100 μM CdCl2 alone.
Setting [2] is: single blocker: 50 μM CNQX (n=6) or 100 μM CdCl2 (n=4).

Structures are written as SMILES. Entries after “also recorded” stand apart in the source; their conditions may differ.

Regarding `[Cl][Cd][Cl]` [CdCl2, cadmium chloride], the “maximum number of elicited spikes in control versus with synaptic blocker” value reads like this: (10-Hz stimulation) “largely clustered around the x-axis”; (25 Hz stimulation) “mostly scattered between the line of unity slope and the x-axis”; (100-Hz stimulation) “largely clustered around the line of unity slope”. The “response to 10-Hz stimulation (spikes elicited)” value by setting is: (100 μM CdCl2 added to 50 μM CNQX, n=2/2) “mostly eliminated”; under setting [1], “completely eliminated; also recorded: greatly reduced”. Further, the “stimulus threshold in blocker relative to control” value (10 Hz stimulation) was “increased significantly” and the “stimulus threshold in blocker relative to control” value (25 Hz stimulation) is recorded as “increased significantly”. Besides, the “response to 25-Hz stimulation (spikes elicited)” value reads like this: (CNQX and CdCl2 both present (n=2)) “greatly reduced”; under setting [2], “greatly reduced”. Further, the “effect of the blockers on stimulus threshold” value (100-Hz stimulation) is on record as “not significant”. For the setting “cadmium applied in addition to CNQX”, the “synaptically mediated response of ganglion cells to stimulation” value was “completely abolish”.
For `N#Cc1cc2c(cc1[N+](=O)[O-])=NC(=O)C(=O)N=2` [CNQX, 6-cyano-7-nitroquinoxaline-2,3-dione], the “maximum number of elicited spikes in control versus with synaptic blocker” value by setting is: (10-Hz stimulation) “largely clustered around the x-axis”; (25 Hz stimulation) “mostly scattered between the line of unity slope and the x-axis”; (100-Hz stimulation) “largely clustered around the line of unity slope”. Besides, under setting [1], the “response to 10-Hz stimulation (spikes elicited)” value is recorded as “greatly reduced; also recorded: completely eliminated”. Also, the “stimulus threshold in blocker relative to control” value runs as follows: (10 Hz stimulation) “increased significantly”; (25 Hz stimulation) “increased significantly”. In addition, the “response to 25-Hz stimulation (spikes elicited)” value under setting [2] is “greatly reduced; also recorded: blocks much of this response”. Where the note is “100-Hz stimulation”, the “effect of the blockers on stimulus threshold” value is given as “not significant”. Besides, the “synaptically mediated response of ganglion cells to stimulation” value (CNQX applied) is given as “greatly reduced”.

Values taken from patent publication US20120083861A1, “SELECTIVE ACTIVATION OF NEURONS BY SINUSOIDAL ELECTRIC STIMULATION” (THE GENERAL HOSPITAL CORPORATION, priority 2010, published 2012).
